This note sets out measurements from patent US10222368B2 (priority 2012, dated 2019).

Experiment [1] relates to cytokines IL-6, TNFα and IL-1β. Nature of the experiment: ICV Aβ42 infusion mouse model, cytokine fluorescence ELISA. It counts as in vivo. The settings on record: ICV Aβ42-infused mice; 10 mg/kg C0105 i.p. The source says:
FIG. 6 illustrates that Compound C0105 treatment of mice nearly abolishes Aβ42-induced cytokine production. […] Compound C0105 almost abolished the production of these 3 cytokines. n=7 or n=8.
A general note: ELISA stands for enzyme-linked immunosorbent assay.

The target of experiment [2] is T1, α7nAChR-FLNA complex (Homo sapiens, UniProt P21333).
T1 construct: To determine the levels of FLNA-α7nAChR, FLNA-TLR4 and α7nAChR-Aβ42 complexes in the lymphocytes; endogenous in cells; host or cells: lymphocytes from venous blood of AD patients and control subjects (ex vivo)
Description: 96-well FITC-solid phase method in lymphocytes. It is filed as cell-based. The settings on record: 1 nM C0105, 30 min; AD lymphocytes or Aβ42-treated control lymphocytes. The source says:
(§1) FIG. 2 illustrates the utility of a 96-well FITC-solid phase assay method to assess, in lymphocytes from AD patients and control subjects, levels of 1) the FLNA-α7nAChR association 2) the FLNA-TLR4 association and 3) α7nAChR-Aβ42 complexes. The top two panels show α7nAChR and TLR4 levels detected using respective FITC-anti-α7nAChR or FITC-anti-TLR4 antibodies after capturing FLNA coupled to α7nAChR and TLR4, respectively, with an anti-FLNA antibody coated on the microtiter solid phase plate.
(§2) To prepare lymphocytes, 7 ml of venous blood was collected into an EDTA-containing collecting tube or S-monovette (Sarstedt). Collected blood (6 ml) was layered onto 6 ml of Histopaque®-1077 (Sigma) at 25° C., and the anticoagulated blood was centrifuged at 400×g for 30 minutes (25° C.) to yield plasma (top layer) and lymphocytes (opaque interface). The lymphocytes were washed twice by mixing with 6 ml of oxygenated K-R followed by centrifugation at 250×g for 10 minutes and resuspension. […]
(§3) After two 1-minute washes with 50 mM Tris HCl (pH 7.4), each well was incubated in 0.5 μg/well FITC-conjugated anti-mouse IgG (human and mouse absorbed) for 1 hour at 25° C. Plates were washed twice with 200 μl ice-cold Tris HCl, pH 7.4 and the residual FITC-Aβ42 signals were determined by multimode plate reader, DTX880 (Beckman).

The target of experiment [3] is T2, TLR4-FLNA complex (Homo sapiens, UniProt P21333).
T2 construct: To determine the levels of FLNA-α7nAChR, FLNA-TLR4 and α7nAChR-Aβ42 complexes in the lymphocytes; endogenous in cells; host or cells: lymphocytes from venous blood of AD patients and control subjects (ex vivo)
Description: 96-well FITC-solid phase method in lymphocytes. It is filed as cell-based. The settings on record: 1 nM C0105, 30 min; AD lymphocytes or Aβ42-treated control lymphocytes.
Text: as §1, §2, §3

In experiment [4] the target is FLNA association with α7nAChR (Homo sapiens, UniProt P21333). Description: Postmortem human brain tissue slices, anti-FLNA immunoprecipitation / Western blot. It counts as cell-based. The settings on record: 0.1 and 1 nM C0105, 1 hour; postmortem AD and Aβ42-treated control FCX tissue. Here is the method: (§4) Blots were analyzed by densitometric quantitation (FIG. 3B and FIG. 3D). […] Percent inhibition is depicted in FIG. 3C and FIG. 3E. n=11.
(§5) Postmortem brain tissues FCX from patients with clinically diagnosed sporadic AD and control tissues from normal, age-matched, neurologically normal individuals were obtained from the Harvard Brain Tissue Resource Center (HBTRC, Belmont, Mass.) and UCLA Brain Tissue Resource Center (UBTRC, Los Angeles, Calif.). Both HBTRC and UBTRC are supported in part by the National Institute of Health. The postmortem time intervals for collecting these brains were ≤13 hour (mean postmortem intervals for collection of AD and control brain samples were 6.0±0.9 hour and 5.8±0.8 hour, respectively). Diagnostic neuropathological examination was conducted on fixed sections stained with hematoxylin and eosin stain and with modified Bielschowsky silver staining [Yamamoto et al., Neuropathol Appl Neurobiol 12, 3-9 (1986)] to establish any disease diagnosis according to defined criteria [Hyman et al., J Neuropathol Exp Neurol 56, 1095-1097 (1997)] and brain tissue from age-matched controls was similarly screened.
(§6) Following centrifugation and two additional washes with 1 ml ice-cold K-R, brain slices were suspended in 1 ml K-R.
(§7) Incubation continued for 1 hour in the dark. […]
(In general: Immunoblotting shows a protein as a band on a membrane.)

The target in experiment [5] is FLNA association with TLR4 (Homo sapiens, UniProt P21333). Described as above. It is filed as cell-based. The settings on record: 0.1 and 1 nM C0105, 1 hour; postmortem AD and Aβ42-treated control FCX tissue. Here is the method:
as §4, §5, §6, §7

Chain of FLNA association with TLR4 (P21333 2-2647 limits assumed): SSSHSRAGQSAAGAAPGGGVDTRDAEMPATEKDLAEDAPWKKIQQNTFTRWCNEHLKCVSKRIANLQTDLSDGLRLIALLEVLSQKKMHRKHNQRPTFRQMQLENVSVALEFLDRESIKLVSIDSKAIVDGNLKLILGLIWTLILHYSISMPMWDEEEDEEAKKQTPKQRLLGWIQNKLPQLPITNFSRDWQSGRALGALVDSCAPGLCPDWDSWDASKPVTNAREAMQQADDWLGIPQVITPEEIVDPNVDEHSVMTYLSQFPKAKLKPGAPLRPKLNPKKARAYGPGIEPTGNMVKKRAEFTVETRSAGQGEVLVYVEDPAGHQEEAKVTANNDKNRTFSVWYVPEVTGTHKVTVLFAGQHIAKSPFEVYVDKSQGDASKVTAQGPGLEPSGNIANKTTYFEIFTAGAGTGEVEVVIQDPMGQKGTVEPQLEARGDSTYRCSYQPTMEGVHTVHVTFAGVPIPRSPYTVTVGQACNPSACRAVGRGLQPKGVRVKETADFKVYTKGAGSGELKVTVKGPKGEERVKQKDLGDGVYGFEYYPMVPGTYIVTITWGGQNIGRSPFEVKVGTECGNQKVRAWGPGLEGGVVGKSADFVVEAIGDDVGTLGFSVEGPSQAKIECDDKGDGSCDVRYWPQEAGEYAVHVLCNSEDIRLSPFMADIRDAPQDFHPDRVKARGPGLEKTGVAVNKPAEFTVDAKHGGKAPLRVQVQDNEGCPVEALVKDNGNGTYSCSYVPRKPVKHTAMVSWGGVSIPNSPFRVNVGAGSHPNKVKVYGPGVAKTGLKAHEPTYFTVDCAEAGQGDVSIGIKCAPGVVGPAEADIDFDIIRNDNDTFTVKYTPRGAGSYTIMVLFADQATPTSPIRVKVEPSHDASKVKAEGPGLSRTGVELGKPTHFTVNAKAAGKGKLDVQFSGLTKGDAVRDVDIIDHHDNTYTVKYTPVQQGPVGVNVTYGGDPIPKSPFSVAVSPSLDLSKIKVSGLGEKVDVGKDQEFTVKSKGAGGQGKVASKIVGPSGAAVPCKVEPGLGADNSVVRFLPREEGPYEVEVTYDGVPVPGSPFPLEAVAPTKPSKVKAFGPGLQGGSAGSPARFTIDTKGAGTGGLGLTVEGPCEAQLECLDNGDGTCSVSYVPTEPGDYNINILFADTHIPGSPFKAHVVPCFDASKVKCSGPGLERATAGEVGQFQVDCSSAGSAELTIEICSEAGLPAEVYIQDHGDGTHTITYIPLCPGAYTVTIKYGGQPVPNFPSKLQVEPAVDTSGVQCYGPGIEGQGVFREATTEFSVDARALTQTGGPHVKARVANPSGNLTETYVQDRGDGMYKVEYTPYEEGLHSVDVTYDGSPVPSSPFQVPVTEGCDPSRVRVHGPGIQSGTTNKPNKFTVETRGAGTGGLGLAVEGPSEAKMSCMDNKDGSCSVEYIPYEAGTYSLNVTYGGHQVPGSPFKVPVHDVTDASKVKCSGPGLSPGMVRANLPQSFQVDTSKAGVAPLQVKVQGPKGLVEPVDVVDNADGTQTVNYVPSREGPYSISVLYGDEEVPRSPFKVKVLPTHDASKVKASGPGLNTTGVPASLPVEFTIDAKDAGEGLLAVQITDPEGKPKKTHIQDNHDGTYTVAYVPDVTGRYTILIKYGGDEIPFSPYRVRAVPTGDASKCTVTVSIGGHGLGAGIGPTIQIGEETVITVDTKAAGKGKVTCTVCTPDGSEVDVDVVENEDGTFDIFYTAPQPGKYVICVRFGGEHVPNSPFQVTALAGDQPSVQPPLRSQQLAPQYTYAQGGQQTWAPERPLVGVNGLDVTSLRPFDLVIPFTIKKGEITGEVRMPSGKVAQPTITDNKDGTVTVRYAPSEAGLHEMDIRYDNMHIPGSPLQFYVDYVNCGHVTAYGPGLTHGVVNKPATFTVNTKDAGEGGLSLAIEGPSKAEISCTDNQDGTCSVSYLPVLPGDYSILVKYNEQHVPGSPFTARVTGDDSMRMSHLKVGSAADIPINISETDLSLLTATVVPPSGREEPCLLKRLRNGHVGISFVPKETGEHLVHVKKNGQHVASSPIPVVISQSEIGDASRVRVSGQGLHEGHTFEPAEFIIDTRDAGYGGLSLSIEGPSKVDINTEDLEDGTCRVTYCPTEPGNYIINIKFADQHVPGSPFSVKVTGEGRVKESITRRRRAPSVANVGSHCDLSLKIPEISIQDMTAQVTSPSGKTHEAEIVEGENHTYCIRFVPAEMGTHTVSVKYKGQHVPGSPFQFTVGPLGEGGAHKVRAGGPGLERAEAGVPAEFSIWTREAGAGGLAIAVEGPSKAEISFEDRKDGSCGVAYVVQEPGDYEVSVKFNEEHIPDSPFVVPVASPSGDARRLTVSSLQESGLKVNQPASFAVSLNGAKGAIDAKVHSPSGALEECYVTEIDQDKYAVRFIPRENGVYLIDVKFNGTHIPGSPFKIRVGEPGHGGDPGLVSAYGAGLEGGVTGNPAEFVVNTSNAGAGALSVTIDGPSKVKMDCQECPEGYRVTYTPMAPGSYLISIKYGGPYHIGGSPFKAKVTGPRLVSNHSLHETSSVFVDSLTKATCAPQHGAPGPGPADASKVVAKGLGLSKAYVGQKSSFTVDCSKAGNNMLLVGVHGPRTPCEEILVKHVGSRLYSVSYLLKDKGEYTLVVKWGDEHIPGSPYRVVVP
T2 sequence (P21333 2-2647 limits assumed, one chain of several): as the sequence (P21333 2-2647 limits assumed) above
Chain of FLNA association with α7nAChR (P21333 2-2647 limits assumed): as above
T1 sequence (P21333 2-2647 limits assumed, one chain of several): as the sequence (P21333 2-2647 limits assumed) above

Take `CN1CCC2(CC1)NCC(=O)N2Cc1ccccc1` [Compound C0105]: in experiment [1], the “Effect on Aβ42-induced IL-6 production (in words)” value is reported as “completely abolished”, the “Suppression of IL-1β level” value worked out at 80% and the “Suppression of TNF-α level” value is recorded as 86%. Moreover, in experiment [2], the “Effect on FLNA-α7nAChR association (in words)” value is given as “reduce all three associations”. Moreover, the “Effect on FLNA-TLR4 association (in words)” value in experiment [3] was “reduce all three associations”. For the same compound, the “Effect on FLNA association with α7nAChR (in words)” value in experiment [4] was “reduced these associations”. In experiment [5], the “Effect on FLNA association with TLR4 (in words)” value is given as “reduced these associations”.
